From publication PMC11411520 (ACS Omega, 2024)
Entries after “also recorded” stand apart in the source; their conditions may differ. No end group written: not given here. *: point of attachment. Biotin = O=C1N[C@H]2[C@H](CS[C@H]2CCCCC(=O)*)N1

System: insulin
Experiment: electrochemical impedance spectroscopy
Type: binding
Conditions: two experimental cases and one scrambled sequence; different insulin concentrations; PBS

## EACVESGGGENLYFQK(Biotin) [scrambled sequence]
  raw phase change (Zphz) across different frequencies: The largest change across different frequencies is observed in the scrambled sequence negative control compared to the other two experimental cases; also recorded: The largest change across different frequencies was observed in (C)
